# Laboratory results published in PubChem BioAssay (NCI).
#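 Five compound concentrations were applied to cells in 96-well plates for 48 hours; endpoints were derived by simple linear interpolation of the resulting dose-response curve. Abbreviation: GI50, concentration required for 50% inhibition of growth. At the TGI there is no net growth.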
# Key:
# Assay in all cases: NCI-60 cell line screen, 48 h
# IGROV1 ovarian = system: IGROV1 ovarian
# MDA-MB-231 breast = system: MDA-MB-231 breast
# OVCAR-8 ovarian = system: OVCAR-8 ovarian
# NCI-H522 lung = system: NCI-H522 lung
# UO-31 renal = system: UO-31 renal
# HL-60(TB) leukemia = system: HL-60(TB) leukemia
# HCT-116 colon = system: HCT-116 colon
# PC-3 prostate = system: PC-3 prostate
# SNB-19 CNS = system: SNB-19 CNS
# UACC-62 melanoma = system: UACC-62 melanoma
SMILES,GI50 (IGROV1 ovarian),TGI (IGROV1 ovarian),GI50 (MDA-MB-231 breast),TGI (MDA-MB-231 breast),GI50 (OVCAR-8 ovarian),TGI (OVCAR-8 ovarian),GI50 (NCI-H522 lung),TGI (NCI-H522 lung),GI50 (UO-31 renal),TGI (UO-31 renal),GI50 (HL-60(TB) leukemia),TGI (HL-60(TB) leukemia),GI50 (HCT-116 colon),TGI (HCT-116 colon),GI50 (PC-3 prostate),TGI (PC-3 prostate),GI50 (SNB-19 CNS),TGI (SNB-19 CNS),GI50 (UACC-62 melanoma),TGI (UACC-62 melanoma)
CCC[CH2][Sn]([CH2]CCC)([O]C(=O)c1ccc(OC)c(OC)c1OC)[O][Sn]([CH2]CCC)([CH2]CCC)[O]C(=O)c1ccc(OC)c(OC)c1OC,0.891 µM,2.47 µM,586 nM,1.89 µM,0.299 µM,0.979 µM,< 10.8 nM,0.0392 µM,546 nM,1.18 µM,112 nM,0.554 µM,276 nM,0.833 µM,1200 nM,2.46 µM,0.285 µM,0.635 µM,164 nM,0.504 µM
NC1CCN(Cc2ccccc2)CC1,94.6 µM,> 100 µM,> 100000 nM,> 100 µM,> 100 µM,> 100 µM,> 100000 nM,> 100 µM,> 100000 nM,> 100 µM,> 100000 nM,> 100 µM,> 100000 nM,> 100 µM,> 100000 nM,> 100 µM,> 100 µM,> 100 µM,> 100000 nM,> 100 µM
Clc1cc2c(c(CSc3nc4ccccc4n4cccc34)c1)OCOC2,4.26 µM,> 100 µM,12700 nM,> 100 µM,20.6 µM,> 100 µM,23400 nM,> 100 µM,> 100000 nM,> 100 µM,> 100000 nM,> 100 µM,> 100000 nM,> 100 µM,> 100000 nM,> 100 µM,41 µM,> 100 µM,76500 nM,> 100 µM
CCN(CC)CCNc1nc(N)c(C#N)c(C#N)c1C#N,–,> 10 µM,–,> 10 µM,–,> 10 µM,–,> 10 µM,–,> 10 µM,–,> 10 µM,–,> 10 µM,–,> 10 µM,–,> 10 µM,–,> 10 µM
O=c1oc2ccc(-c3ccc(F)cc3F)cc2c(=O)n1-c1cccc(C(F)(F)F)c1,1.66 µM,22.2 µM,2080 nM,7.37 µM,2.05 µM,> 100 µM,343 nM,5.61 µM,1380 nM,8.22 µM,1330 nM,3.89 µM,1330 nM,3.45 µM,2040 nM,12.4 µM,1.83 µM,> 100 µM,382 nM,2.79 µM
CCN1CCN(c2cc(C)c3cc(NC(=O)c4ccc(OC)c(OC)c4)ccc3n2)CC1,> 66.3 µM,> 100 µM,11200 nM,> 100 µM,50.7 µM,> 100 µM,485 nM,16.9 µM,> 37400 nM,> 73.2 µM,4190 nM,> 44.8 µM,3160 nM,> 100 µM,7300 nM,> 100 µM,> 61 µM,> 100 µM,> 39400 nM,> 64.8 µM
CC(C)(/C=C(\C#N)C(=O)N1CCC[C@@H](n2nc(-c3ccc(Oc4ccccc4)cc3F)c3c(N)ncnc32)C1)N1CCN(C2COC2)CC1,4.3 µM,16.6 µM,10200 nM,27.7 µM,10.8 µM,34.3 µM,2800 nM,17.7 µM,2820 nM,10.6 µM,5280 nM,32.5 µM,6310 nM,20.1 µM,10600 nM,27.6 µM,8.09 µM,20.6 µM,3040 nM,14.3 µM
COc1cc(N=Nc2ccc(O)c3ncccc23)c2ncccc2c1,3.67 µM,> 100 µM,3160 nM,> 100 µM,3.73 µM,> 100 µM,4260 nM,> 100 µM,2560 nM,25.3 µM,2470 nM,9.16 µM,2560 nM,> 100 µM,2840 nM,> 100 µM,4.11 µM,> 100 µM,2400 nM,7.68 µM
O=C(Nc1ccc(Br)cc1F)c1cc(Cl)ccc1O,0.388 µM,> 100 µM,554 nM,5.23 µM,1.06 µM,12.8 µM,361 nM,4.34 µM,207 nM,2.36 µM,481 nM,3.19 µM,522 nM,2.45 µM,1870 nM,6.68 µM,0.418 µM,> 100 µM,292 nM,1.16 µM
O=C(/C=C/c1ccc[nH]1)c1ccc(-n2ccc(C(F)(F)F)n2)cc1,> 100 µM,> 100 µM,> 100000 nM,> 100 µM,> 100 µM,> 100 µM,4080 nM,> 100 µM,560 nM,2.4 µM,307 nM,4.12 µM,> 100000 nM,> 100 µM,371 nM,> 100 µM,> 100 µM,> 100 µM,> 100000 nM,> 100 µM
CCOC(=O)Nc1cc2c(c(N)n1)N=C(c1ccccc1)CO2,0.148 µM,11.9 µM,691 nM,6.43 µM,0.418 µM,> 32.9 µM,268 nM,13 µM,459 nM,6.53 µM,30.3 nM,–,84 nM,13.9 µM,182 nM,6.44 µM,0.414 µM,25 µM,359 nM,31.3 µM
C=CCC1(c2ccc(OC)cc2)C=CC(=O)CC1 (centres undefined),–,> 100 µM,–,> 100 µM,–,> 100 µM,–,> 100 µM,–,> 100 µM,–,> 100 µM,–,> 100 µM,–,> 100 µM,–,> 100 µM,–,> 100 µM
CN1CCN(c2ccc(Nc3cc(-c4cccc(-n5ccc6cc(C7CC7)cc(F)c6c5=O)c4CO)cn(C)c3=O)nc2)CC1,8.65 µM,25.7 µM,2260 nM,6.17 µM,4.84 µM,29.7 µM,4330 nM,21 µM,1720 nM,3.46 µM,2210 nM,4.4 µM,3310 nM,18.9 µM,8930 nM,25.2 µM,3.15 µM,15.4 µM,2400 nM,6.63 µM
